Results as given in PMC11909324 (Journal of the Science of Food and Agriculture, 2024).
Read-outs that look alike come from different tables or passages of the source.

Columns and labels:
[1] = molecular target: T1, xanthine oxidase (XO) (Bos taurus, UniProt P80457); experiment: XO assay with 6MP as substrate (6-thiouric acid formation, HPLC-UV); assay type: biochemical, bovine; settings: inhibitor 20 μmol L^−1; 6MP 5 μmol L^−1;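 also: incubation in 0.05 mol L^−1 sodium phosphate buffer, with 6MP and 6-thiouric acid quantified by HPLC-UV and conversion taken as the product share of substrate plus product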
T1 construct: XO (from bovine milk); purchased Merck (Darmstadt, Germany); host or cells: bovine milk (natural source)
T1 sequence (P80457 whole entry): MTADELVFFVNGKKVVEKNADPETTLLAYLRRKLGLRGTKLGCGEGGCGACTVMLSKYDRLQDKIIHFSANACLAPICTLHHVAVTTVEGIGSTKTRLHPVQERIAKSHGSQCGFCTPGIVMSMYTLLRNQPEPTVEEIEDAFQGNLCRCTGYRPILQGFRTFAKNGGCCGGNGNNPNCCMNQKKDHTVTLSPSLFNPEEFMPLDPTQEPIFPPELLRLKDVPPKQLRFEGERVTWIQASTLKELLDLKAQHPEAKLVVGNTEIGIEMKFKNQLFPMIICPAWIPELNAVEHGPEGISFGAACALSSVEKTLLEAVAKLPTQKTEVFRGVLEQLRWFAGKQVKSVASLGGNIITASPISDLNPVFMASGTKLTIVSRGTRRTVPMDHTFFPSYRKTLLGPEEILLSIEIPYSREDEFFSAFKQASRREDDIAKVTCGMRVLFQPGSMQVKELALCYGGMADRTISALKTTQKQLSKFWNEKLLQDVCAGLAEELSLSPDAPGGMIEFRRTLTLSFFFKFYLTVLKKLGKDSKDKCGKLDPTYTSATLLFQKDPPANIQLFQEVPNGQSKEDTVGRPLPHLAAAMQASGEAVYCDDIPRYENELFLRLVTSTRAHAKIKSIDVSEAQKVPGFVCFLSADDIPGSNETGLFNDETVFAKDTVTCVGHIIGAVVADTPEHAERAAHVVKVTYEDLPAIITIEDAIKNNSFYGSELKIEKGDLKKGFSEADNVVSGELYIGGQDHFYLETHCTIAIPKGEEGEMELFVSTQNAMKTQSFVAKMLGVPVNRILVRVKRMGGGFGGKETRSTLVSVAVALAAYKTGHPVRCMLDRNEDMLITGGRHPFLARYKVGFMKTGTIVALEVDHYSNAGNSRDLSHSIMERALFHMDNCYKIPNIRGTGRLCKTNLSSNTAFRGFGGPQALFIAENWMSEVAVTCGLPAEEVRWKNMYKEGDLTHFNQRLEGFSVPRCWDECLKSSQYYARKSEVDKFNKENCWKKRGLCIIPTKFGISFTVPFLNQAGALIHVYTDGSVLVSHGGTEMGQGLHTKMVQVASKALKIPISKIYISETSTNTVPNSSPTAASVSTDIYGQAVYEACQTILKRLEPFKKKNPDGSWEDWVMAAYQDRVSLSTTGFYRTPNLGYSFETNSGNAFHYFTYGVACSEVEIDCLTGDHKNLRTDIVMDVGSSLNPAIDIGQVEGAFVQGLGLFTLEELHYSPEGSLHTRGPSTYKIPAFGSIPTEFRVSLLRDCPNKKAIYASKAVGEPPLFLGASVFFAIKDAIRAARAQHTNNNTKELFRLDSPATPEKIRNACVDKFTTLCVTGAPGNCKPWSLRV

[2] = cited from earlier work
[3] = cited from earlier work; remark: listed apart in the source
[4] = molecular target: T1, xanthine oxidase (XO); experiment: XO assay with xanthine as substrate (uric acid formation, HPLC-UV); assay type: biochemical, bovine; settings: inhibitor 20 μmol L^−1, xanthine 5 μmol L^−1;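 also: incubations in 0.05 mol L^−1 sodium phosphate buffer, with uric acid and remaining xanthine both quantified by HPLC-UV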

Row | decrease in 6-thiouric acid formation (inhibition of XO-catalyzed 6MP oxidation) [1] | inhibition at 20 µM ([4]; read-out: decrease in uric acid production (inhibition of XO-catalyzed xanthine oxidation)) | SMILES | oral bioavailability [2] | peak plasma concentrations ([3]; in vivo) | decrease in uric acid production (inhibition of XO-catalyzed xanthine oxidation) [4] | peak plasma concentrations ([3]; humans, peroral high doses (0.5–5.0 g) of RES)
1 | weak to moderate inhibitors |  | Oc1ccc(/C=C/c2cc(O)cc(O)c2)cc1 [RES, resveratrol] | less than 1% |  |  | 
2 | weak to moderate inhibitors | 27% | O=S(=O)(O)Oc1cc(O)cc(C=Cc2ccc(O)cc2)c1 [R3S, resveratrol‐3‐sulfate] |  |  |  | 10 to 20 µmol/L

Row | SMILES | decrease in 6-thiouric acid formation (inhibition of XO-catalyzed 6MP oxidation) [1] | inhibition at 20 µM ([4]; read-out: decrease in uric acid production (inhibition of XO-catalyzed xanthine oxidation)) | oral bioavailability [2] | peak plasma concentrations ([3]; in vivo) | decrease in uric acid production (inhibition of XO-catalyzed xanthine oxidation) [4] | peak plasma concentrations ([3]; humans, peroral high doses (0.5–5.0 g) of RES)
3 | O=C(O)[C@H]1O[C@@H](Oc2cc(O)cc(/C=C/c3ccc(O)cc3)c2)[C@H](O)[C@@H](O)[C@@H]1O [R3G, resveratrol‐3‐glucuronide] | not significant |  |  | 10 to 20 µmol/L | 10% | 
